Measurements taken from patent US20070072814A1, “Method and means of modulating lipid metabolism” (priority 2003, published 2007).

Columns and labels:
Format in all cases: in vivo, human
Triglycerides = assay: Clinical trial: serum triglycerides of IHD patients under therapy; settings: patient serum
Description: (§1) A group of […] patients were selected for therapy to alter lipid metabolism relative to a control group of 20 ‘matched’patients who were not treated (Patient Control Group).
(§2) The therapy group comprised 23 male and 7 female patients with an average age of 55±1.1 years. The patient control group was comprised of 20 patients with IHD, of which 15 were male and 5 were female with an average age of 53±1.2 years. Each patient gave written consent for his/her participation in the trial.
(§3) All patients had angina of II-III class of Canadian Cardiological Society classification.
(§4) Apart from the degree of generalization or severity of atherosclerosis, all groups were matched not only in age, gender and risk factors but also in medication, nitrates, β-blockers, angiotensin-converting enzyme inhibitors etc.
(§5) Each therapy was administered for 8 weeks. The blood of the patients of all four groups was tested every two weeks.

Total cholesterol = assay: Clinical trial: serum total cholesterol of IHD patients under therapy; settings: patient serum; for cholesterol lowering effect (in words): therapy administered for 8 weeks
Description: as §1, §2
(§6) All patients had angina of II-III class of Canadian Cardiological Society classification. […] IHD diagnosis for the other 15 patients with a recent history of unstable angina in the first group and 10 in the patient control group was confirmed by coronary angiography, which detected 70% or more of arterial stenosis.
as §4, §5

LDL cholesterol = assay: Clinical trial: serum LDL-cholesterol (enzymatic and immunologic assays); settings: patient serum
Description: as §1, §2, §3, §4, §5
(§7) The level of LDL was estimated in two independent parameters: LDL-cholesterol measured by combination of enzymatic and immunologic assays, and Apo-B measured by immuno-turbometric assay. These assays were performed using commercially available kits which include goat anti-human apo-B polyclonals (LDL-Direct™, Randox Labs Ltd UK, EZ LDL™ Cat No-358-A, Sigma UK).

ApoB = assay: Clinical trial: serum Apo-B (immuno-turbometric assay); settings: patient serum
Description: as §1, §2, §6, §4, §5, §7

ApoA = assay: Clinical trial: serum ApoA of IHD patients under therapy; settings: patient serum
Description: as §1, §2, §3, §4, §5

For `CC[C@H]1OC(=O)[C@H](C)[C@@H](O[C@H]2C[C@@](C)(OC)[C@@H](O)[C@H](C)O2)[C@H](C)[C@@H](O[C@@H]2O[C@H](C)C[C@H](N(C)C)[C@H]2O)[C@](C)(O)C[C@@H](C)CN(C)[C@H](C)[C@@H](O)[C@]1(C)O` [Group A, azithromycin], the Triglycerides (Triglycerides; 1 month after treatment) was 106 mg/dL, the “Triglycerides (% of before-treatment value)” value (Triglycerides; 1 month after treatment) was 91% and the Triglycerides (Triglycerides; 2 months after treatment) was 118 mg/dL. The “Triglycerides (% of before-treatment value)” value (Triglycerides; 2 months after treatment) was 101%, the Triglycerides (Triglycerides; 3 months after treatment) was 109 mg/dL and the “Triglycerides (% of before-treatment value)” value (Triglycerides; 3 months after treatment) was 93%. The Triglycerides (Triglycerides; Treatment 4 weeks) was 112 mg/dL, the “Triglycerides (% of before-treatment value)” value (Triglycerides; Treatment 4 weeks) was 96% and the Triglycerides (Triglycerides; Treatment 6 weeks) was 101 mg/dL. For the same compound, the “Triglycerides (% of before-treatment value)” value (Triglycerides; Treatment 6 weeks) was 86%, the Triglycerides (Triglycerides; Treatment 8 weeks) was 99 mg/dL and the “Triglycerides (% of before-treatment value)” value (Triglycerides; Treatment 8 weeks) was 85%. For the same compound, the Total cholesterol (Total cholesterol; 1 month after treatment) was 197 mg/dL, the “Total cholesterol (% of before-treatment value)” value (Total cholesterol; 1 month after treatment) was 96% and the Total cholesterol (Total cholesterol; 2 months after treatment) was 196 mg/dL. For the same compound, the “Total cholesterol (% of before-treatment value)” value (Total cholesterol; 2 months after treatment) was 96%, the Total cholesterol (Total cholesterol; 3 months after treatment) was 198 mg/dL and the “Total cholesterol (% of before-treatment value)” value (Total cholesterol; 3 months after treatment) was 97%. The Total cholesterol (Total cholesterol; Treatment 4 weeks) was 186 mg/dL, the “Total cholesterol (% of before-treatment value)” value (Total cholesterol; Treatment 4 weeks) was 91% and the Total cholesterol (Total cholesterol; Treatment 6 weeks) was 190 mg/dL. The “Total cholesterol (% of before-treatment value)” value (Total cholesterol; Treatment 6 weeks) was 93%, the Total cholesterol (Total cholesterol; Treatment 8 weeks) was 191 mg/dL and the “Total cholesterol (% of before-treatment value)” value (Total cholesterol; Treatment 8 weeks) was 93%. For the same compound, the “cholesterol lowering effect (in words)” value (Total cholesterol) was “no cholesterol lowering effect”, the LDL cholesterol (LDL cholesterol; 1 month after treatment) was 44 mg/dL and the “LDL cholesterol (% of before-treatment value)” value (LDL cholesterol; 1 month after treatment) was 129%. For the same compound, the LDL cholesterol (LDL cholesterol; 2 months after treatment) was 41 mg/dL, the “LDL cholesterol (% of before-treatment value)” value (LDL cholesterol; 2 months after treatment) was 121% and the LDL cholesterol (LDL cholesterol; 3 months after treatment) was 40 mg/dL. For the same compound, the “LDL cholesterol (% of before-treatment value)” value (LDL cholesterol; 3 months after treatment) was 118%, the LDL cholesterol (LDL cholesterol; Treatment 4 weeks) was 37 mg/dL and the “LDL cholesterol (% of before-treatment value)” value (LDL cholesterol; Treatment 4 weeks) was 109%. The LDL cholesterol (LDL cholesterol; Treatment 6 weeks) was 38 mg/dL, the “LDL cholesterol (% of before-treatment value)” value (LDL cholesterol; Treatment 6 weeks) was 112% and the LDL cholesterol (LDL cholesterol; Treatment 8 weeks) was 39 mg/dL. The “LDL cholesterol (% of before-treatment value)” value (LDL cholesterol; Treatment 8 weeks) was 115%, the ApoB (ApoB; 1 month after treatment) was 115 mg/dL and the “ApoB (% of before-treatment value)” value (ApoB; 1 month after treatment) was 92%. The ApoB (ApoB; 2 months after treatment) was 133 mg/dL, the “ApoB (% of before-treatment value)” value (ApoB; 2 months after treatment) was 106% and the ApoB (ApoB; 3 months after treatment) was 131 mg/dL. The “ApoB (% of before-treatment value)” value (ApoB; 3 months after treatment) was 105%, the ApoB (ApoB; Treatment 4 weeks) was 109 mg/dL and the “ApoB (% of before-treatment value)” value (ApoB; Treatment 4 weeks) was 87%. The ApoB (ApoB; Treatment 6 weeks) was 110 mg/dL, the “ApoB (% of before-treatment value)” value (ApoB; Treatment 6 weeks) was 88% and the ApoB (ApoB; Treatment 8 weeks) was 113 mg/dL. The “ApoB (% of before-treatment value)” value (ApoB; Treatment 8 weeks) was 90%, the ApoA (ApoA; 1 month after treatment) was 145 mg/dL and the “ApoA (% of before-treatment value)” value (ApoA; 1 month after treatment) was 90%. The ApoA (ApoA; 2 months after treatment) was 162 mg/dL, the “ApoA (% of before-treatment value)” value (ApoA; 2 months after treatment) was 101% and the ApoA (ApoA; 3 months after treatment) was 161 mg/dL. The “ApoA (% of before-treatment value)” value (ApoA; 3 months after treatment) was 100%, the ApoA (ApoA; Treatment 4 weeks) was 142 mg/dL and the “ApoA (% of before-treatment value)” value (ApoA; Treatment 4 weeks) was 88%. The ApoA (ApoA; Treatment 6 weeks) was 143 mg/dL, the “ApoA (% of before-treatment value)” value (ApoA; Treatment 6 weeks) was 89% and the ApoA (ApoA; Treatment 8 weeks) was 141 mg/dL. The “ApoA (% of before-treatment value)” value (ApoA; Treatment 8 weeks) was 88%.

For `CC(=O)Oc1ccccc1C(=O)O` [Group D, acetylsalicylic acid], the Triglycerides (Triglycerides; 1 month after treatment) was 146 mg/dL, the “Triglycerides (% of before-treatment value)” value (Triglycerides; 1 month after treatment) was 126% and the Triglycerides (Triglycerides; 2 months after treatment) was 128 mg/dL. For the same compound, the Triglycerides (Triglycerides; 3 months after treatment) was 134 mg/dL, the Triglycerides (Triglycerides; Treatment 2 weeks) was 152 mg/dL and the “Triglycerides (% of before-treatment value)” value (Triglycerides; Treatment 2 weeks) was 131%. For the same compound, the Triglycerides (Triglycerides; Treatment 4 weeks) was 111 mg/dL, the “Triglycerides (% of before-treatment value)” value (Triglycerides; Treatment 4 weeks) was 96% and the Total cholesterol (Total cholesterol; 1 month after treatment) was 221 mg/dL. The “Total cholesterol (% of before-treatment value)” value (Total cholesterol; 1 month after treatment) was 87%, the Total cholesterol (Total cholesterol; 2 months after treatment) was 223 mg/dL and the “Total cholesterol (% of before-treatment value)” value (Total cholesterol; 2 months after treatment) was 88%. The Total cholesterol (Total cholesterol; 3 months after treatment) was 234 mg/dL, the “Total cholesterol (% of before-treatment value)” value (Total cholesterol; 3 months after treatment) was 92% and the Total cholesterol (Total cholesterol; Treatment 2 weeks) was 233 mg/dL. For the same compound, the “Total cholesterol (% of before-treatment value)” value (Total cholesterol; Treatment 2 weeks) was 92%, the Total cholesterol (Total cholesterol; Treatment 4 weeks) was 210 mg/dL and the “Total cholesterol (% of before-treatment value)” value (Total cholesterol; Treatment 4 weeks) was 83%. The “cholesterol lowering effect (in words)” value (Total cholesterol) was “no cholesterol lowering effect”, the LDL cholesterol (LDL cholesterol; 1 month after treatment) was 44 mg/dL and the LDL cholesterol (LDL cholesterol; 2 months after treatment) was 38 mg/dL. The “LDL cholesterol (% of before-treatment value)” value (LDL cholesterol; 2 months after treatment) was 103%, the LDL cholesterol (LDL cholesterol; 3 months after treatment) was 43 mg/dL and the LDL cholesterol (LDL cholesterol; Treatment 2 weeks) was 41 mg/dL. For the same compound, the LDL cholesterol (LDL cholesterol; Treatment 4 weeks) was 41 mg/dL, the ApoB (ApoB; 1 month after treatment) was 131 mg/dL and the “ApoB (% of before-treatment value)” value (ApoB; 1 month after treatment) was 106%. The ApoB (ApoB; 2 months after treatment) was 142 mg/dL, the “ApoB (% of before-treatment value)” value (ApoB; 2 months after treatment) was 114% and the ApoB (ApoB; 3 months after treatment) was 111 mg/dL. The “ApoB (% of before-treatment value)” value (ApoB; 3 months after treatment) was 90%, the ApoB (ApoB; Treatment 2 weeks) was 137 mg/dL and the “ApoB (% of before-treatment value)” value (ApoB; Treatment 2 weeks) was 110%. For the same compound, the ApoB (ApoB; Treatment 4 weeks) was 113 mg/dL, the “ApoB (% of before-treatment value)” value (ApoB; Treatment 4 weeks) was 91% and the ApoA (ApoA; 1 month after treatment) was 184 mg/dL. The ApoA (ApoA; 2 months after treatment) was 166 mg/dL, the “ApoA (% of before-treatment value)” value (ApoA; 2 months after treatment) was 106% and the ApoA (ApoA; 3 months after treatment) was 179 mg/dL. For the same compound, the ApoA (ApoA; Treatment 2 weeks) was 157 mg/dL, the “ApoA (% of before-treatment value)” value (ApoA; Treatment 2 weeks) was 99% and the ApoA (ApoA; Treatment 4 weeks) was 151 mg/dL. For the same compound, the “ApoA (% of before-treatment value)” value (ApoA; Treatment 4 weeks) was 96%.
